14 compounds from PubChem BioAssay (NCI) can be followed below.

Each structure is given as a SMILES string.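 Values below derive from 48-hour exposures of cells grown in 96-well plates, with endpoints linearly interpolated between the two concentrations bracketing the appropriate inhibition level. Here, GI50 denotes the concentration required for 50% inhibition of growth. At the TGI there is no net growth.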

What all share (test): NCI-60 cell line screen, 48 h
In assay [1] the test system is CCRF-CEM leukemia.
The subject of assay [2] is SN12C renal.
For assay [3], the system named is DU-145 prostate.
Assay [4] deals with MDA-MB-435.
The test system of assay [5] is SK-MEL-2 melanoma.
The subject of assay [6] is TK-10 renal.
For assay [7], the system named is LOX IMVI melanoma.
In assay [8] the test system is HCT-116 colon.
Assay [9] deals with M14 melanoma.
In assay [10] the test system is 786-0 renal.

`CCC[CH2][Sn]([CH2]CCC)([CH2]CCC)/[C](=C/[Si](C)(C)c1ccccc1)c1ccc2c(c1)OCO2`: the GI50 in assay [1] is 12 µM; in assay [2], 19.1 µM; in [3], 21.7 µM; in assay [4], 15.7 µM; in assay [5], 23.5 µM; in [6] it was 33.8 µM. In addition, the GI50 in assay [7] was 21.3 µM; in assay [8] it was 17.9 µM; in [9], 16.8 µM; in assay [10], 16 µM. The TGI came to 73.2 µM in assay [1]; 39 µM in [2]; 48.6 µM in assay [3]; 31.3 µM in [4]; 63.5 µM in assay [5]; 99.1 µM in assay [6]. The TGI in assay [7] is 66.7 µM; in assay [8] it was 41 µM; in assay [9], 35.2 µM; in assay [10] it was 30.9 µM.

Regarding `CC12CCC(=O)C(O1)C1C(=O)c3ccc4c(ccc5ccccc54)c3C(=O)C12` (centres undefined), the GI50 is 3.77 µM in assay [1]; 5.42 µM in assay [2]; 2.73 µM in [3]; 13 µM in assay [4]; 10 µM in [5]; 3.47 µM in assay [6]. Besides, the GI50 is 0.477 µM in assay [7], 3.03 µM in [8], 12.2 µM in assay [9] and 2.35 µM in assay [10]. Besides, the TGI was above 100 µM in assay [1]; 10.3 µM in [2]; 6.49 µM in assay [3]; 26.4 µM in assay [4]; above 28.6 µM in assay [5]; 7.89 µM in assay [6]. The TGI was found to be 3.57 µM in assay [7], 4.71 µM in assay [8], 30.6 µM in [9] and 6.01 µM in [10].

Consider `CCCCC#Cc1c(I)n(C2OC(CO[Si](C)(C)C(C)(C)C)C3OC(C)(C)OC32)c(=O)n(C(=O)c2ccccc2)c1=O` (centres undefined), for which the GI50 is 13.4 µM in assay [1]; 19.3 µM in assay [2]; 2.25 µM in assay [3]; 1.77 µM in [4]; 2.09 µM in assay [5]; 1.78 µM in assay [6]. Also, the GI50 in assay [7] was 5.54 µM; in assay [8], 1.36 µM; in assay [9], 1.6 µM; in assay [10], 3.25 µM. In addition, the TGI in [1] was 33.4 µM; in assay [2], 45.4 µM; in [3], 4.68 µM; in assay [4], 3.87 µM; in [5] it was 4.75 µM; in [6], 3.19 µM. In addition, the TGI turned out to be 38.5 µM in assay [7], 2.74 µM in assay [8], 3.3 µM in assay [9] and 14.5 µM in [10].

With `Nc1c(C(=O)c2cccc(C(O)CO)c2)cnn1-c1ccc(F)cc1` (centres undefined), the GI50 in [1], in [2], in assay [3], in [4], in assay [5] and in [6] was above 25 µM in each case. Also, the GI50 in assay [7], in assay [8], in assay [9] and in [10] was above 25 µM in each case. Moreover, the TGI in assay [1], in [2], in [3], in assay [4], in assay [5] and in assay [6] was above 25 µM in each case. The TGI in assay [7], in assay [8], in assay [9] and in assay [10] was above 25 µM in each case.

Regarding `Cc1nc(NS(=O)(=O)c2ccc(NCN3C(=O)c4ccccc4C3=O)cc2)oc1C`, the GI50 is 0.0113 µM in assay [1]; above 100 µM in [2]; above 100 µM in assay [3]; above 100 µM in assay [4]; above 100 µM in assay [5]; above 100 µM in assay [6]. The GI50 in assay [7], in [8], in assay [9] and in assay [10] was above 100 µM in each case. For the same compound, the TGI in assay [1] is 0.0422 µM; in [2] it was above 100 µM; in [3], above 100 µM; in assay [4], above 100 µM; in assay [5] it was above 100 µM; in assay [6], above 100 µM. Further, the TGI in assay [7], in assay [8], in [9] and in assay [10] was above 100 µM each time.

On to `CCCCCCCCCCCNC=O`, for which the TGI is above 100 µM in [1]; above 100 µM in assay [2]; above 100 µM in assay [3]; above 100 µM in [4]; 66.1 µM in [5]; above 100 µM in assay [6]. Besides, the TGI in assay [7], in assay [8], in assay [9] and in assay [10] was above 100 µM each time.

For `COc1cc(Cl)c(CC(=O)c2c[nH]c3ccccc23)cc1OC`, the TGI in assay [1] is above 57.5 µM; in assay [2], above 100 µM; in [3], above 100 µM; in assay [4], above 100 µM; in [5], above 100 µM; in assay [6] it was above 74 µM. Besides, the TGI in assay [7], in assay [8], in [9] and in [10] was above 100 µM throughout.

`CC(C)=Cc1cc(C)c2ccc(C)c3c2c1C(C)=C(O)C3=O`: the GI50 in assay [1] was 4.45 µM; in assay [2] it was 24.3 µM; in [3] it was 36.3 µM; in [4], 27.5 µM; in assay [5] it was 25.7 µM; in assay [6], 44.6 µM. Besides, the GI50 is 69.3 µM in [7], 17.7 µM in assay [8], 20.1 µM in [9] and 35.9 µM in [10]. Also, the TGI was 19.7 µM in assay [1]; 61.6 µM in assay [2]; above 100 µM in [3]; 73.7 µM in [4]; 82.3 µM in assay [5]; above 100 µM in assay [6]. Also, the TGI in [7] was above 100 µM; in [8] it was 34.8 µM; in assay [9], 45.7 µM; in assay [10], above 100 µM.

As for `CC(C)=Cc1cc(CCC/C(C)=C/Cc2c(O)cc(C)c(C(=O)O)c2O)co1`, the TGI in assay [1], in assay [2], in assay [3], in [4], in assay [5] and in assay [6] was above 100 µM each time. For the same compound, the TGI in assay [7], in assay [8], in assay [9] and in [10] was above 100 µM in each case.

As to `NC(N)=NC(N)=Nc1ccc(C(=O)O)cc1`, the TGI in assay [1], in assay [2], in [3], in assay [4], in [5] and in [6] was above 100 µM each time. Moreover, the TGI in assay [7], in assay [8], in [9] and in assay [10] was above 100 µM throughout.

Turning to `COc1ccc(C2NN=C3c4ccccc4CCC32)cc1` (centres undefined), the GI50 in [1] was 4.64 µM; in assay [2], 15.4 µM; in [3], 19.2 µM; in assay [4], 1.57 µM; in assay [5], 28.5 µM; in [6] it was 16.9 µM. Also, the GI50 was 8.25 µM in [7], 6.85 µM in assay [8], 6.23 µM in [9] and 53.1 µM in assay [10]. In addition, the TGI in assay [1] was above 100 µM; in assay [2], 79.5 µM; in assay [3], 72.6 µM; in assay [4] it was 3.62 µM; in assay [5], above 100 µM; in assay [6], 71.8 µM. The TGI was 33.5 µM in assay [7], 30.2 µM in [8], above 100 µM in assay [9] and above 100 µM in assay [10].

Take `C=C(C(=O)OC)[C@@H]1CC2OC1C(=O)C(C)CCC/C(C)=C/CC[C@@]2(C)O` (some centres undefined): the GI50 in [1] was 11 µM; in assay [2] it was 31.3 µM; in assay [3], 15 µM; in [4], 25.9 µM; in [5] it was 37.8 µM; in assay [6], 20.8 µM. Also, the GI50 in [7] was 20.2 µM; in [8], 13.4 µM; in assay [9], 15.8 µM; in [10] it was 15.2 µM. The TGI in assay [1] is 36.1 µM; in [2], 91.5 µM; in assay [3], 28.2 µM; in assay [4] it was 79.4 µM; in assay [5], above 100 µM; in assay [6], 71.1 µM. Further, the TGI in assay [7] turned out to be 57.2 µM; in assay [8], 26.2 µM; in assay [9], 29.2 µM; in [10], 31.5 µM.

For the compound `CC(=O)c1c[nH]c2ccc(-c3ccnc(Nc4ccc(NC(=O)C5CCCC5)c(CN5CCOCC5)c4)n3)cc12`, the GI50 in assay [1] was 0.0294 µM; in [2], 0.0301 µM; in [3] it was 0.0362 µM; in assay [4], 0.0286 µM; in assay [5] it was 0.0222 µM; in assay [6], 0.0274 µM. Besides, the GI50 was 0.0132 µM in [7], 0.0138 µM in assay [8], 0.0274 µM in [9] and 0.031 µM in assay [10]. Also, the TGI in [2] came to 3.97 µM; in assay [3], 2.38 µM; in assay [4], 0.121 µM; in assay [5], 0.0585 µM; in assay [6], 0.406 µM; in assay [7] it was 0.0479 µM. The TGI in [8] was 0.953 µM; in assay [9], 0.0955 µM; in [10] it was 2.63 µM.

Take `COc1ccc2c(c1O)[C@@]13CCCC=C1[C@@H](C2)[N+](C)(C)CC3`: the TGI in [1], in assay [2], in [3], in assay [4], in assay [5] and in assay [6] was above 100 µM throughout. The TGI in [7], in assay [8], in assay [9] and in [10] was above 100 µM throughout.
